From paper PMC12892976, “Alkylation-based optimization of antifungal FPPS inhibitors yields a potent, broad-spectrum lipophilic zoledronate derivative” (mBio, 2025)
Converted amounts (≈) assume the structure as drawn. Where two headings read alike, the source gives them in different places.

How the values were obtained:
[1] = tested on: Cryptococcus deuterogattii; test: MIC/MFC broth microdilution (CLSI); conditions: Cryptococcus deuterogattii;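 note: broth microdilution per CLSI M27-Ed4. MFC is the lowest concentration yielding no colonies when MIC broths are subcultured onto SDA plates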
Method: (§1) Antifungal susceptibility was determined by broth microdilution according to the CLSI guidelines described in M27-Ed4 ([16]). […] MFC was determined by back-plating drug-treated cultures from MIC broths onto SDA plates. The MFC was defined as the lowest concentration from which no colonies could be cultured.

Candida glabrata [2] = test: MIC/MFC broth microdilution (CLSI); conditions: Nakaseomyces glabratus, CBS138;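 note: broth microdilution following CLSI M27-Ed4, MFC taken as the lowest drug level yielding no growth once MIC wells were subcultured on SDA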
Method: as §1

Candida glabrata [3] = test: checkerboard drug interaction (FICI, MICc);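 for all read-outs here: simplified diagonal checkerboard screen pairing antifungals with FPPS inhibitors, FICI calculated under the Loewe additivity model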; assay type: cell-based; conditions: C. glabrata; for INH FD (MIC-MICc fold decrease): fold decrease of inhibitor MIC
Method: (§2) Drug interactions between antifungals and FPPS inhibitors were investigated using a simplified checkerboard diagonal screening method ([45]). […] FICIs were determined according to the Loewe additivity model ([17]).

Aspergillus flavus [4] = test: checkerboard drug interaction (FICI, MICc);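 note: simplified diagonal checkerboard screen pairing azole antifungals with FPPS inhibitors, FICI calculated under the Loewe additivity model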; assay type: cell-based; design: INH MICc (KET:INH) / INH MICc (FLC:INH): unit not given beside the values; conditions: A. flavus
Candida albicans = test: MIC/MFC broth microdilution (CLSI); assay type: cell-based; conditions: Candida albicans SC5314
Method: as §1

Aspergillus flavus [5] = test: MIC/MFC broth microdilution (CLSI); conditions: ATCC204304
Method: as §1

HEK-293T cells = test: MTT reduction cytotoxicity assay; assay type: cell-based; conditions: Homo sapiens, HEK-293T, 72 h, MTT, 72 h
eight fungal species [6] = test: MIC/MFC summary across the eight fungal species of Table 1; assay type: cell-based
Method: The antifungal activity of these compounds was evaluated according to CLSI guidelines ([16]).

Saccharomyces cerevisiae = test: MIC/MFC broth microdilution (CLSI); assay type: cell-based; conditions: Saccharomyces cerevisiae S288c
Method: as §1

eight fungal species [7] = test: checkerboard interaction with azoles, summary across the eight species; assay type: cell-based; conditions: geometric mean MIC in combination with azoles
Description: Synergy between lipophilic FPPS inhibitors and azole antifungals was investigated by determining the fractional inhibitory concentration index (FICI) (Fig. 2; Table S1 Fig. S1) ([17]). […]. Derivatives PLA9 and 11, and PDA9, 11, and 12 antagonized azoles in C. albicans, C. neoformans, and C. deuterogattii, yet were largely synergistic in C. glabrata and S. cerevisiae. […].

Trichophyton rubrum = test: checkerboard drug interaction (FICI, MICc);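 note: simplified diagonal checkerboard screen pairing azole antifungals with FPPS inhibitors, FICI calculated under the Loewe additivity model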; assay type: cell-based; conditions: T. rubrum
Method: as §2

Aspergillus fumigatus = test: checkerboard drug interaction (FICI, MICc); assay type: cell-based;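 note: simplified diagonal checkerboard screen pairing antifungals with FPPS inhibitors against Aspergillus fumigatus, with FICI calculated under the Loewe additivity model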
Method: as §2

[8] = Fractional Inhibitory Concentration Index, fluconazole + inhibitor
[9] = Fractional Inhibitory Concentration Index, itraconazole + inhibitor
[10] = Fractional Inhibitory Concentration Index, ketoconazole + inhibitor
[11] = MIC of the inhibitor in combination with fluconazole
[12] = MIC of the inhibitor in combination with itraconazole
[13] = MIC of the inhibitor in combination with ketoconazole
[14] = MIC-MICc fold decrease of fluconazole, negative = increase
[15] = MIC-MICc fold decrease of itraconazole, negative = increase
[16] = MIC-MICc fold decrease of ketoconazole, negative = increase
[17] = MIC-MICc fold decrease of the inhibitor, with fluconazole
[18] = MIC-MICc fold decrease of the inhibitor, with itraconazole
[19] = MIC-MICc fold decrease of the inhibitor, with ketoconazole

## CCCCCCCCCCCN1CCC[C@H]1C(=O)N[C@H](CC(=O)OC)C(=O)OC [dmPDA11]
[1]
  MFC: 128 µg/mL (≈ 310 µM)
  MIC: 16 µg/mL (≈ 38.8 µM)
Candida glabrata [2]
  MFC: 128 µg/mL (≈ 310 µM)
  MIC: 128 µg/mL (≈ 310 µM)
Candida glabrata [3]; FLC:INH combination
  FICI: ≥4
  INH FD (MIC-MICc fold decrease): 1
Candida glabrata [3]; FLC:INH combination, MIC of the inhibitor in combination with FLC
  INH MICc: 32
Candida glabrata [3]; FLC:INH combination, fold decrease of FLC MIC
  FLC FD (MIC-MICc fold decrease): -2
Candida glabrata [3]; ITR:INH combination
  FICI: 1
  INH FD (MIC-MICc fold decrease): 8
Candida glabrata [3]; ITR:INH combination, MIC of the inhibitor in combination with ITR
  INH MICc: 4
Candida glabrata [3]; ITR:INH combination, fold decrease of ITR MIC
  ITR FD (MIC-MICc fold decrease): 2
Candida glabrata [3]; KET:INH combination
  FICI: 2
  INH FD (MIC-MICc fold decrease): 4
Candida glabrata [3]; KET:INH combination, MIC of the inhibitor in combination with KET
  INH MICc: 8
Candida glabrata [3]; KET:INH combination, fold decrease of KET MIC
  KET FD (MIC-MICc fold decrease): 1
Aspergillus flavus [4]; [8]
  FICI (FLC:INH): 0.75
Aspergillus flavus [4]; [9]
  FICI (ITR:INH): 1.01
Aspergillus flavus [4]; [10]
  FICI (KET:INH): 0.31
Aspergillus flavus [4]; [11]
  INH MICc (FLC:INH): 64
Aspergillus flavus [4]; [12]
  INH MICc (ITR:INH): 2
Aspergillus flavus [4]; [13]
  INH MICc (KET:INH): 16
Aspergillus flavus [4]; [14]
  FLC FD (FLC:INH): 2
Aspergillus flavus [4]; [15]
  ITR FD (ITR:INH): 1
Aspergillus flavus [4]; [16]
  KET FD (KET:INH): 4
Aspergillus flavus [4]; [17]
  INH FD (FLC:INH): 4
Aspergillus flavus [4]; [18]
  INH FD (ITR:INH): 128
Aspergillus flavus [4]; [19]
  INH FD (KET:INH): 16
Candida albicans
  MFC: > 128 µg/mL
  MIC: > 128 µg/mL
Aspergillus flavus [5]
  MFC: > 128 µg/mL
  MIC: > 128 µg/mL
HEK-293T cells; HEK-293T cells, read-out: IC50
  IC50: 6.19 µg/mL (≈ 15 µM)
HEK-293T cells; read-out: HEK IC50
  IC50: 6.19 µg/mL (≈ 15 µM)
Eight fungal species [6]; across eight species, read-out: Geometric mean MFC
  MFC: 140 µg/mL (≈ 338 µM)
Eight fungal species [6]; geometric mean across eight species, read-out: GM fungal MIC
  MIC: 69.8 µg/mL (≈ 169 µM)
Eight fungal species [6]; read-out: Geometric mean MIC
  MIC: 69.8 µg/mL (≈ 169 µM)
Saccharomyces cerevisiae
  MFC: 128 µg/mL (≈ 310 µM)
  MIC: 64 µg/mL (≈ 155 µM)
Eight fungal species [7]
  GM fungal MICc: 25.4
Trichophyton rubrum; [8]
  FICI (FLC:INH): ≥4
Trichophyton rubrum; [9]
  FICI (ITR:INH): 2.13
Trichophyton rubrum; [10]
  FICI (KET:INH): ≥4
Trichophyton rubrum; [11]
  INH MICc (FLC:INH): 64
Trichophyton rubrum; [12]
  INH MICc (ITR:INH): 32
Trichophyton rubrum; [13]
  INH MICc (KET:INH): 128
Trichophyton rubrum; [14]
  FLC FD (FLC:INH): 2
Trichophyton rubrum; [15]
  ITR FD (ITR:INH): 8
Trichophyton rubrum; [16]
  KET FD (KET:INH): 1
Trichophyton rubrum; [17]
  INH FD (FLC:INH): -4
Trichophyton rubrum; [18]
  INH FD (ITR:INH): -2
Trichophyton rubrum; [19]
  INH FD (KET:INH): < -4
Aspergillus fumigatus; [8]
  FICI (FLC:INH): 1.25
Aspergillus fumigatus; [9]
  FICI (ITR:INH): 0.53
Aspergillus fumigatus; [10]
  FICI (KET:INH): 3
Aspergillus fumigatus; [11]
  INH MICc (FLC:INH): 64
Aspergillus fumigatus; [12]
  INH MICc (ITR:INH): 2
Aspergillus fumigatus; [13]
  INH MICc (KET:INH): 128
Aspergillus fumigatus; [14]
  FLC FD (FLC:INH): 4
